Assay results: ChEMBL document CHEMBL4364309, “Rigidification Dramatically Improves Inhibitor Selectivity for RAF Kinases” (ACS Med Chem Lett, 2019)

Assays:
A-375 = assay: Antiproliferative activity at human A375 cells expressing BRAF V600E mutant assessed as reduction in cell viability incubated for 96 hrs by MTT assay; format: functional, cell-based; settings: A-375, 96 h
[1] = target: T1, Serine/threonine-protein kinase B-raf (Homo sapiens, UniProt P15056, V600E); assay: Inhibition of recombinant His-tagged BRAF V600E mutant (unknown origin) (444-723 residues) expressed in Escherichia coli BL21(DE3)-RIL using MEKK97R as substrate assessed as reduction in phosphorylation incubated for 20 mins by immunoblot assay
[2] = target: RAF proto-oncogene serine/threonine-protein kinase (Homo sapiens) (UniProt P04049); assay: Inhibition of CRAF (unknown origin) at 1 uM relative to control
[3] = target: Serine/threonine-protein kinase B-raf (Homo sapiens) (UniProt P15056); assay: Inhibition of BRAF (unknown origin) at 1 uM relative to control
SK-MEL-5 = assay: Growth inhibition of human SK-MEL-5 cells harboring BRAF V600E mutant incubated for 48 hrs by sulforhodamine B assay; format: functional
[4] = target: T1, Serine/threonine-protein kinase B-raf; assay: Inhibition of BRAF V600E in human A375 cells assessed as reduction in ERK phosphorylation incubated for 1 hr by immunoblot analysis; format: cell-based
[5] = target: Macrophage colony-stimulating factor 1 receptor (Homo sapiens) (UniProt P07333); assay: Inhibition of FMS (unknown origin) at 1 uM relative to control
[6] = test system: Serine/threonine-protein kinase B-raf (Homo sapiens), P15056 [V600E]; assay: Potency index, ratio vemurafenib IC50 to test compound IC50 for Inhibition of recombinant His-tagged BRAF V600E mutant (unknown origin) (444 to 723 residues) expressed in Escherichia coli BL21(DE3)-RIL
Malme-3M = assay: Growth inhibition of human MALME-3M cells harboring BRAF V600E mutant incubated for 48 hrs by sulforhodamine B assay; format: functional
MDA-MB-435 = assay: Growth inhibition of human MDA-MB-435 cells harboring BRAF V600E mutant incubated for 48 hrs by sulforhodamine B assay; format: functional
[7] = target: Protein-tyrosine kinase 6 (Homo sapiens) (UniProt Q13882); assay: Inhibition of BRK (unknown origin) at 1 uM relative to control
Protein-tyrosine kinase 6 (Homo sapiens), sequence (Q13882 whole entry, looked up): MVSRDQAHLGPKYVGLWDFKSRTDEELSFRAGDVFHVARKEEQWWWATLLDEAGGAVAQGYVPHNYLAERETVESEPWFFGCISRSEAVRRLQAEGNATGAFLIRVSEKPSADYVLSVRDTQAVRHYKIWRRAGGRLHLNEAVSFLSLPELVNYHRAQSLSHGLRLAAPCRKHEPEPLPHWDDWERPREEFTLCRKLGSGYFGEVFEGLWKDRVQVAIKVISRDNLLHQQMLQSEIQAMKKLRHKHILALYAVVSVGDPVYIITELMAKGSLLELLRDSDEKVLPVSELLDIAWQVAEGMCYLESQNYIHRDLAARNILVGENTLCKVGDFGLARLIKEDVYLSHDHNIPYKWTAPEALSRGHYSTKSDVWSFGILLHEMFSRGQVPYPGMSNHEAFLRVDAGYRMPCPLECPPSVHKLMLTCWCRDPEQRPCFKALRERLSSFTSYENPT

Serine/threonine-protein kinase B-raf (Homo sapiens), sequence (P15056 whole entry): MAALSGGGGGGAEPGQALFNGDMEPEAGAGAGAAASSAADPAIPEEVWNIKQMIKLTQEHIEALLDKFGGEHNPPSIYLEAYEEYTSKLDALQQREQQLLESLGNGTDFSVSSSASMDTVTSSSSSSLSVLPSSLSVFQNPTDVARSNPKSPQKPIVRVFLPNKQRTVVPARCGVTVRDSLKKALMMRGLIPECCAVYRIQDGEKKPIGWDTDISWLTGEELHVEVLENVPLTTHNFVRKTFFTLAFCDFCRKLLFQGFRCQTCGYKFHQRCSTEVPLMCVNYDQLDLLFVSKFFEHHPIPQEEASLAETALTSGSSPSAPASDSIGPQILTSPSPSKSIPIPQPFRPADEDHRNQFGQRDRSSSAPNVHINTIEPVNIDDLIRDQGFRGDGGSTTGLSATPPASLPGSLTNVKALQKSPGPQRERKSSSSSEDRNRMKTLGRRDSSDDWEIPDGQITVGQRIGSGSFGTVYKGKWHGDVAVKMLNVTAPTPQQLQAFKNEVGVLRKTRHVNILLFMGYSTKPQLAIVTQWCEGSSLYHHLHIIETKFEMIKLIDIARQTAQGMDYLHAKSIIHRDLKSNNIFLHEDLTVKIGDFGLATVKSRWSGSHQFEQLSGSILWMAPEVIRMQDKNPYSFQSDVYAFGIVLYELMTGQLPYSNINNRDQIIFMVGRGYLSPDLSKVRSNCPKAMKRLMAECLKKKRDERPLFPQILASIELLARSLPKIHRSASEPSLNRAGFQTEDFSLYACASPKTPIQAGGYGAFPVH
RAF proto-oncogene serine/threonine-protein kinase (Homo sapiens), sequence (P04049 whole entry): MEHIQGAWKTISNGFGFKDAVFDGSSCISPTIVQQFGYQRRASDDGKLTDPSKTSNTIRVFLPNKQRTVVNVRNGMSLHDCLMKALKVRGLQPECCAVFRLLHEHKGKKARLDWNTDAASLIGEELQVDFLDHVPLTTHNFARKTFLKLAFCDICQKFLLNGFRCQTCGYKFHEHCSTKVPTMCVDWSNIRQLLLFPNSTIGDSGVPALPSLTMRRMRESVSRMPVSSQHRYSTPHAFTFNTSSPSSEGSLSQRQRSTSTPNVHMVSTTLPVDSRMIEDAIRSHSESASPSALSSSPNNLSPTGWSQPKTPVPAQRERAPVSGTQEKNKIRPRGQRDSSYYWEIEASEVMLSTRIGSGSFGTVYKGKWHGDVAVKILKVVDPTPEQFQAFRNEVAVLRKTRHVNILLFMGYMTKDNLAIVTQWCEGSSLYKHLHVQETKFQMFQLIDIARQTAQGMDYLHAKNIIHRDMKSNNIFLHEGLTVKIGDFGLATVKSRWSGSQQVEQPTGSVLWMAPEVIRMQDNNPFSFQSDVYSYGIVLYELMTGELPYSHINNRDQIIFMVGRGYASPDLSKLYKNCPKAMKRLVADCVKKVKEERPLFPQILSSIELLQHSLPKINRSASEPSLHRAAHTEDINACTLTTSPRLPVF
T1 sequence (P15056 2-766 V600E limits assumed): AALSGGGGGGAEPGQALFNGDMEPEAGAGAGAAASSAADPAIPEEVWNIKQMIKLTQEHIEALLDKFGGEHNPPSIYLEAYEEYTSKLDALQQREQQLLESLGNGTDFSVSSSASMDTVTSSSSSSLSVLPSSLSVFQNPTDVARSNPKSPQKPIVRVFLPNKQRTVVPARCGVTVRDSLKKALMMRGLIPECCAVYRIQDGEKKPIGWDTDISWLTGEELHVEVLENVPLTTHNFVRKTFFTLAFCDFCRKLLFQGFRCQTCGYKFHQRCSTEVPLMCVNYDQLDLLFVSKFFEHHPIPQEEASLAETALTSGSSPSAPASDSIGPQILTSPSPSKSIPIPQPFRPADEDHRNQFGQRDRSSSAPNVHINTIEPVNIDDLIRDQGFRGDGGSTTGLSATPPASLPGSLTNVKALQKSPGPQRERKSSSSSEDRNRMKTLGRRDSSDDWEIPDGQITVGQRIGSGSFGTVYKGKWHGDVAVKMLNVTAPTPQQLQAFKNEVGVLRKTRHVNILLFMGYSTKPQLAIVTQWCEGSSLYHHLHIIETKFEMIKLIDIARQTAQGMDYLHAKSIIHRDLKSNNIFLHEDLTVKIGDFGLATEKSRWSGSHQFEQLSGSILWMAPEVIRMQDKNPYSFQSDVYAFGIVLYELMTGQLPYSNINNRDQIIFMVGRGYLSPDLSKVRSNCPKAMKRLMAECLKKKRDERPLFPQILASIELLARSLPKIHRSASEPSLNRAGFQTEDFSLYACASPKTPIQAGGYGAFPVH
Macrophage colony-stimulating factor 1 receptor (Homo sapiens), sequence (P07333 whole entry, the tested form may be a part): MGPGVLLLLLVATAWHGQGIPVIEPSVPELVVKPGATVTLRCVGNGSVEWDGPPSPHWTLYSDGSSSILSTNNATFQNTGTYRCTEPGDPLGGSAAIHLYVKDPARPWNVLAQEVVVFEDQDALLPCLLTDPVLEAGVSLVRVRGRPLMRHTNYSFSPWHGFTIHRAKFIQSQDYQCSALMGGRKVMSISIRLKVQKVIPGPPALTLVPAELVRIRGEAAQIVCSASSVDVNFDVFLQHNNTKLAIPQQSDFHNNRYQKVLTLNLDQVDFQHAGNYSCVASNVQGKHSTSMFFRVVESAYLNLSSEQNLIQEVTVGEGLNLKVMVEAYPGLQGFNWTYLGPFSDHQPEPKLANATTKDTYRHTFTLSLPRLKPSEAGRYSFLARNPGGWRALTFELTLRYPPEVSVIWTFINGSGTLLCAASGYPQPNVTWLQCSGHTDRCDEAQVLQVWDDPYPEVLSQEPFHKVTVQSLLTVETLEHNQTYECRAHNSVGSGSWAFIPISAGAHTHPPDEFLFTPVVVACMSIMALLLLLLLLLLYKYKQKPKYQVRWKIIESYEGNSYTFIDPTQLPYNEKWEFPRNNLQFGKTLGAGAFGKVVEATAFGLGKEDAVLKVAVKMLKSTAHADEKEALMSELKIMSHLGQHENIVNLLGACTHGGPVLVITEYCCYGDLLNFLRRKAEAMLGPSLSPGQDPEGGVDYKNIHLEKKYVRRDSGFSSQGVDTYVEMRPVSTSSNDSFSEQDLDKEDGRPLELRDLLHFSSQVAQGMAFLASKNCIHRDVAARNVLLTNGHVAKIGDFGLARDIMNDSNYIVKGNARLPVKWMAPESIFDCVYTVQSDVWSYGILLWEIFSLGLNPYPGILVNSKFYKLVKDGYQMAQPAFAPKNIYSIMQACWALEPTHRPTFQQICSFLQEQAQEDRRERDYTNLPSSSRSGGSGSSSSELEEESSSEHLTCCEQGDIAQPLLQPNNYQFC
Serine/threonine-protein kinase B-raf (Homo sapiens), P15056 [V600E], sequence (P15056 whole entry V600E, the tested form may be a part): as the sequence (P15056 whole entry) above, with V600E counted along it

Structure (SMILES) | IC50 (A-375) [nM] | IC50 [1] [nM] | other results
CC(C)n1nc(C#Cc2cccc3c(Nc4ccc(Cl)cc4)nccc23)c2c(N)ncnc21 | > 10000 | 29 | 
Cc1ccc(Nc2nccc3c(C#Cc4nn(C(C)C)c5ncnc(N)c45)cccc23)cc1C(F)(F)F |  | > 300 | 
Cc1cn(-c2cc(Nc3nccc4c(C#Cc5nn(C(C)C)c6ncnc(N)c56)cccc34)cc(C(F)(F)F)c2)cn1 |  | > 300 | 
CCCn1nc(C#Cc2cccc3c(Nc4cccc(C(F)(F)F)c4)nccc23)c2c(N)ncnc21 |  | > 300 | 
CCn1nc(C#Cc2cccc3c(Nc4cccc(C(F)(F)F)c4)nccc23)c2c(N)ncnc21 | > 10000 | 41 | 
CC(C)n1nc(C#Cc2cccc3c(Nc4cccc(C(F)(F)F)c4)ncnc23)c2c(N)ncnc21 |  | > 300 | 
CC(C)n1nc(C#Cc2cccc3c(Nc4cccc(C(F)(F)F)c4)nccc23)c2c(N)ncnc21 | > 10000 | 140 | inhibition [2]: > 85%; inhibition [3]: > 85%
CCCS(=O)(=O)Nc1ccc(F)c(C(=O)c2c[nH]c3ncc(-c4ccc(Cl)cc4)cc23)c1F |  |  | inhibition [2]: > 85%; inhibition [3]: > 85%
CC(C)n1nc(C#Cc2cccc3c(Nc4ccc(Cl)c(C(F)(F)F)c4)nccc23)c2c(N)ncnc21 |  | > 300 | 
CCn1nc(C#Cc2c(C)ccc3c(Nc4ccc(Cl)cc4)nccc23)c2c(N)ncnc21 | 417 | 8 | inhibition [2]: > 85%; inhibition [3]: > 85%; Activity (SK-MEL-5): Dose-dependent effect; GI (SK-MEL-5): 6.6 µM; IC50 [4]: 420 nM; inhibition [5]: > 85%; Ratio IC50 [6]: 2; Activity (Malme-3M): Dose-dependent effect; GI (Malme-3M): 7.1 µM; Activity (MDA-MB-435): Dose-dependent effect; GI (MDA-MB-435): 4.6 µM; inhibition [7]: > 85%
CC(C)n1nc(C#Cc2cccc3c(Nc4cccc(C(F)(F)F)c4)cccc23)c2c(N)ncnc21 |  | > 300 | 
Cc1ccc2c(Nc3cccc(C(F)(F)F)c3)nccc2c1C#Cc1nn(C(C)C)c2ncnc(N)c12 | 869 | 21 | 
CC(C)n1nc(C#Cc2cccc3c(Oc4cccc(C(F)(F)F)c4)nccc23)c2c(N)ncnc21 |  | > 300 | 
